A word on the pIC50: it is the negative decadic logarithm of the IC50, by convention in mol/L.

The values below come from patent US9944752B2, “Block copolymers for stable micelles” (Intezyne Technologies, Inc., priority 2012, dated 2018).

pIC50: −log10 of the molar value.

One series relates to A549 lung cancer cells. The experiment in a line: In-vitro cytotoxicity of aminopterin formulations (cell titer-glo). The series is classed as cell-based. The note with it: Homo sapiens, A549, 72 h, read-out: IC50 (cell viability inhibited by 50%). On the procedure:
(§1) Cells originally purchased from ATCC (A549, Panc-1, OVCAR3, and BXPC-3) were seeded in 96 well tissue culture plates to be 50% confluent by 24 hours. Cells were incubated at 37° C. with 5.0% CO2. Cells were treated with escalating doses of free aminopterin, crosslinked aminopterin formulation, uncrosslinked aminopterin formulation, and non drug-loaded micelle formulations 24 hours after plate seeding. Free aminopterin was dissolved in DMSO and administered to cells with a total volume of DMSO equal to or less than 0.0025%. Micelle formulations were re-suspended in biology grade water. Dilutions were done in deep well plates with cell media and water or DMSO (for free aminopterin only) equalizing displaced volume. Incubation media was aspirated from the 96 well plates and 100 μl of each dilution was added to the wells in triplicate and incubated over 72 hours at 37° C. with 5.0% CO2. Crosslinked and uncrosslinked non drug-loaded micelle formulations were administered at the four highest doses and were calculated at comparative mg/ml concentrations to drug-loaded micelle concentrations of delivery vehicle. […] Plates were briefly shaken to mix and luminescence readings were read on a plate reader. Luminescence reading for triplicate doses are averaged and divided by average luminescence readings from untreated cells on the same plate to calculate the % of viable cells per dose. […]
In general terms: ATP-based viability assays read luminescence as a measure of living cells.

Series [1] relates to PANC-1 pancreatic (folate receptor +) cancer cells. The description is as above. The series is classed as cell-based. To be noted: Homo sapiens, PANC-1, 72 h, read-out: IC50 (cell viability inhibited by 50%). On the procedure:
as §1

Series [2] in a line: Rat pharmacokinetics of crosslinked cabizataxel micelles. Further details: species or system Fisher rats. The note with it: Fisher, in vivo, iv, 5 mg/kg. From the text:
The delivery vehicle for drug administration was isotonic saline.

Details of series [3]: species or system Fisher rats. The note with it: Fisher, rat, in vivo, iv, 10 mg/kg. On the procedure: The delivery vehicle for drug administration was isotonic saline. […] Samples were analyzed on a Waters Alliance 2695 equipped with a 2475 fluorescence detector (Ex=470 nm; Em=580). A 5 μL sample injection was made onto a Waters 4 μm Nova Pak C18 (3.9×150 mm) at 30° C. with a flow rate of 0.750 mL per minute of 10 mM phosphate buffer (pH=1.4), methanol and acetonitrile (gradient from 70/10/20 to 40/10/50 for buffer/methanol/acetonitrile was made over eight minutes). Analyte eluted at 5.9 minutes under these conditions, was normalized to the internal standard, and quantitated using a standard curve comprised of seven standards.

Turning to `Nc1nc(N)c2nc(CNc3ccc(C(=O)N[C@@H](CCC(=O)O)C(=O)O)cc3)cnc2n1` [Aminopterin, aminopterin], the negative logarithm of the IC50 (pIC50) (in the series on A549 lung cancer cells; in series [1]) was 7.60 to 8.15 each time.
`CO[C@H]1C(=O)[C@]2(C)[C@@H](OC)C[C@H]3OC[C@@]3(OC(C)=O)[C@H]2[C@H](OC(=O)c2ccccc2)[C@]2(O)C[C@H](OC(=O)[C@H](O)[C@@H](NC(=O)OC(C)(C)C)c3ccccc3)C(C)=C1C2(C)C` [free cabizataxel, cabazitaxel] showed an Exposure of cabazitaxel to the plasma compartment over 15 minutes in series [2] of 0.2 µg·h/mL.
For `COc1cccc2c1C(=O)c1c(O)c3c(c(O)c1C2=O)C[C@@](O)(C(C)=O)C[C@@H]3O[C@H]1C[C@H](N)[C@H](O)[C@H](C)O1` [free daunorubicin, daunorubicin], in series [3], the CMax was 3.3 µg/mL and the Half-life is reported as 3.3 h.
